According to the NIST ThermoML archive (doi:10.1021/je900689m):

Assay: xn = mol fraction of the nth substance listed
Conditions: 101 kPa, Liquid; for viscosity: Capillary tube (Ostwald / Ubbelohde) method

CCCCc1ccccc1 [butylbenzene] + CCOC=O
Conditions | mass density, 303.15 K [kg/m3] | mass density, 308.15 K [kg/m3] | mass density, 313.15 K [kg/m3] | speed of sound, 303.15 K [m/s] | speed of sound, 308.15 K [m/s] | speed of sound, 313.15 K [m/s] | viscosity, 303.15 K [mPa·s] | viscosity, 308.15 K [mPa·s] | viscosity, 313.15 K [mPa·s]
x2 = 0 | 851.3 | 848 | 844.6 | 1308 | 1292 | 1276 | 0.901 | 0.844 | 0.787
x2 = 0.1738 | 855.4 | 851.9 | 848.4 | 1284 | 1264 | 1244 | 0.782 | 0.713 | 0.65
x2 = 0.3241 | 860.3 | 856.6 | 852.9 | 1252 | 1232 | 1212 | 0.692 | 0.627 | 0.571
x2 = 0.4533 | 865.4 | 861.5 | 857.5 | 1220 | 1200 | 1180 | 0.625 | 0.569 | 0.518
x2 = 0.563 | 870.7 | 866.6 | 862.4 | 1196 | 1176 | 1156 | 0.571 | 0.521 | 0.476
x2 = 0.6587 | 876.3 | 872 | 867.6 | 1176 | 1156 | 1136 | 0.525 | 0.48 | 0.44
x2 = 0.744 | 882.2 | 877.6 | 873.1 | 1156 | 1136 | 1116 | 0.482 | 0.443 | 0.407
x2 = 0.8189 | 888.4 | 883.6 | 878.8 | 1140 | 1120 | 1100 | 0.451 | 0.412 | 0.381
x2 = 0.8855 | 894.5 | 889.6 | 884.6 | 1124 | 1104 | 1084 | 0.419 | 0.385 | 0.355
x2 = 0.9459 | 901.2 | 896 | 890.8 | 1108 | 1088 | 1068 | 0.398 | 0.366 | 0.336

CCOC=O [ethyl methanoate] + CCCCc1ccccc1
x1 = 1
Conditions | mass density [kg/m3] | speed of sound [m/s] | viscosity [mPa·s]
303.15 K | 907.8 | 1092 | 0.373
308.15 K | 902.6 | 1072 | 0.345
313.15 K | 897.1 | 1052 | 0.324

c1ccccc1 [benzene] + CCOC=O
x2 = 0
Conditions | mass density [kg/m3] | speed of sound [m/s] | viscosity [mPa·s]
303.15 K | 867.6 | 1276 | 0.569
308.15 K | 863.2 | 1252 | 0.534
313.15 K | 858.9 | 1228 | 0.497
